In patent publication US7101915B1, “P-terphenyl compounds” (Shionogi & Co., Ltd., priority 1996, dated 2006):
In brackets after ≈: the same amount, converted by molar mass.

Columns and labels:
Assay type in all cases: cell-based
Conditions in all cases: EL-4, TPA 10 ng/ml, 24 hours, ELISA
[1] = system: IL-2 production of mouse T cell strain EL-4 (TPA); test: Suppressive effect on the cytokine production of mouse T cell strain EL-4: IL-2
Protocol: (§1) Experiment 8 Suppressive Effect on the Cytokine Production of a Mouse T Cell Strain EL-4 In 48-well plate were added 2×10^5 mouse T cell strain EL-4 which were suspended in 0.2 ml of 1% fetal bovine serum-added RPMI 1640 medium (2 mM of sodium bicarbonate, 50 units/ml of penicillin, 50 μg/ml of streptomycin and 5×10^−5 M of 2-mercaptoethanol were added) and the compound of the present invention of a predetermined concentration. TPA was added as a cell stimulater at a final concentration of 10 ng/ml to adjust a final volume of each well to 0.4 ml. Each compound of the present invention was dissolved in DMSO and diluted with the above RPMI 1640 medium, and then for added at a final concentration of 100 ng/ml or less. The cells in the 48-well plate were cultivated in an incubator keeping the humidity 100%, carbon dioxide 5% and air 95% at 37° C. for 24 hours to collect a supernatant of each well. The amount of IL-2, IL-4 and IL-5 released in the medium of each well were measured with the ELISA kit (Amersham K. K.) to be taken as an index of the cytokine production of the cells. TPA free group (-TPA) was used as a control.

[2] = system: IL-4 production of mouse T cell strain EL-4 (TPA); test: Suppressive effect on the cytokine production of mouse T cell strain EL-4: IL-4
Protocol: as §1

[3] = system: IL-5 production of mouse T cell strain EL-4 (TPA); test: Suppressive effect on the cytokine production of mouse T cell strain EL-4: IL-5
Protocol: as §1

| SMILES | IC50 IL-2 [1] [µg/mL] | IC50 IL-4 [2] [µg/mL] | IC50 IL-5 [3] [µg/mL] |
| --- | --- | --- | --- |
| COC(=O)c1ccc(-c2cc(OC)c(-c3ccc(OCc4ccccc4)c(O)c3)c(O)c2OC)cc1 [Compound I-237] | >0.1 | 0.017 (≈ 0.0349 µM) | 0.1 (≈ 0.206 µM) |
| COc1cc(-c2ccc(OS(C)(=O)=O)cc2)c(OC)c(C)c1-c1ccc(OCc2ccc(C)cc2)c(OS(C)(=O)=O)c1 [Compound I-230] | >1 | 0.013 (≈ 0.0212 µM) | 0.02 (≈ 0.0326 µM) |
| COc1cc(-c2ccc(N(C)C)cc2)c(OC)c(OS(C)(=O)=O)c1-c1ccc(OCC=C(C)C)c(OS(C)(=O)=O)c1 [Compound I-242] | >1 | 0.1 (≈ 0.165 µM) | 0.88 (≈ 1.45 µM) |
| COC(=O)c1ccc(-c2cc(OC)c(-c3ccc(OCc4ccccc4)c(OS(C)(=O)=O)c3)c(OS(C)(=O)=O)c2OC)cc1 [Compound I-238] | >1 | 0.035 (≈ 0.0545 µM) | >1 |
| COc1cc(-c2ccc(O)cc2)c(OC)c(O)c1-c1ccc(S(=O)(=O)CC=C(C)C)c(O)c1 [Compound I-226] | 0.88 (≈ 1.87 µM) | 0.017 (≈ 0.0361 µM) | 0.3 (≈ 0.638 µM) |
| COc1cc(-c2ccc(C(F)(F)F)cc2)c(OC)c(O)c1-c1ccc(OCC=C(C)C)c(O)c1 [Compound I-190] | >0.1 | 0.007 (≈ 0.0148 µM) | 0.01 (≈ 0.0211 µM) |
| COc1cc(-c2ccc(O)cc2)c(OC)c(O)c1-c1ccc(OCc2ccc(C)cc2C)c(O)c1 [Compound I-309] | >0.5 | 0.029 (≈ 0.0614 µM) | 0.01 (≈ 0.0212 µM) |
| COc1cc(-c2ccc(O)cc2)c(OC)c(O)c1-c1ccc(OC/C=C(\C)CCC=C(C)C)c(O)c1 [Compound I-37] | >0.5 | 0.007 (≈ 0.0143 µM) | 0.11 (≈ 0.224 µM) |
| COc1cc(-c2ccc(O)cc2)c(OC)c(O)c1-c1ccc(SCc2ccccn2)c(O)c1 [Compound I-223] | 1 (≈ 2.17 µM) | 0.016 (≈ 0.0347 µM) | 0.045 (≈ 0.0975 µM) |
| COc1cc(-c2ccc(OS(C)(=O)=O)cc2)c(OC)c(OS(C)(=O)=O)c1-c1ccc(OCc2ccc(C(C)C)cc2)c(OS(C)(=O)=O)c1 [Compound I-305] | >1 | 0.01 (≈ 0.0139 µM) | 0.34 (≈ 0.472 µM) |
| COc1cc(-c2ccc(O)cc2)c(OC)c(O)c1-c1ccc(OC/C=C/CO)c(O)c1 [Compound I-296] | >1 | 0.07 (≈ 0.165 µM) | 0.047 (≈ 0.111 µM) |
| COc1cc(-c2ccc(O)cc2)c(OC)c(C)c1-c1ccc(OCCC=C(C)C)c(O)c1 [Compound I-229] | >1 | 0.042 (≈ 0.0967 µM) | 0.08 (≈ 0.184 µM) |
| COc1cc(-c2ccc(OS(C)(=O)=O)cc2)c(OC)c(OS(C)(=O)=O)c1-c1ccc(OCc2c(C)cc(C)cc2C)c(OS(C)(=O)=O)c1 [Compound I-202] | >2 | <0.02 | <0.02 |
| COc1cc(-c2ccc(OS(C)(=O)=O)cc2)c(OC)c(C)c1-c1ccc(OCCC=C(C)C)c(OS(C)(=O)=O)c1 [Compound I-228] | >1 | 0.021 (≈ 0.0356 µM) | 0.03 (≈ 0.0508 µM) |
| COc1cc(-c2ccc(OS(C)(=O)=O)cc2)c(OC)c(OS(C)(=O)=O)c1-c1ccc(OCc2ccc3ccccc3n2)c(OS(C)(=O)=O)c1 [Compound I-307] | >1 | 0.052 (≈ 0.0713 µM) | 0.023 (≈ 0.0315 µM) |
| COc1cc(-c2ccc(OS(C)(=O)=O)cc2)c(OC)c(OS(C)(=O)=O)c1-c1ccc(OCc2ccc(-c3ccccc3)cc2)c(OS(C)(=O)=O)c1 [Compound I-403] | >1 | 0.013 (≈ 0.0172 µM) | >1 |
| COc1cc(-c2ccc(O)cc2)c(OC)c(O)c1-c1ccc(OCC=NNC(N)=O)c(O)c1 [Compound I-302] | >1 | 0.025 (≈ 0.0551 µM) | 0.28 (≈ 0.617 µM) |
